One series has as its system HCV gT1b replicon. Description: HCV replicon assay, gT1b. As to conditions: Hepatitis C virus, GT1B, Huh-7, Huh7 replicon cells, mean value. The class given is cell-based, Hepatitis C virus (HCV). The protocol:
The HCV replicon assay was used to determine the antiviral activity of compounds of general formula 2 (test compounds). The test cell line used in the HCV Replicon Assay was the human hepatoma cell line Huh7 incorporating the HCV replicons synthesized by an outside vendor.
96-well plates were seeded with cells at a density of 7.5×10^3 cells per well in 50 μl of assay media. The compound stock solution was made up freshly in an assay medium (DMEM 1×, Cellgro; cat. #10-013-CV) as a 2× stock. A total of 11 serial 3-fold dilutions of test compounds were prepared from the 2× stock in the assay media ranging from 20 nM-0.2 pM final concentrations. At least 4 hours after seeding the cells, compound treatment was initiated by adding 50 μl of compound dilution to the plates. The final concentrations of compound therefore ranged from 10 nM to 0.1 pM when diluted 1:1 in culture media. The final DMSO concentration was 0.5%. Cells and inhibitors were incubated for 3 days at 37° C./5% CO2. The media was removed from the plates by gentle tapping. The cells were fixed with 100 μl 1:1 acetone:methanol for 1 minute, washed three times with PBS buffer, and then blocked with 150 μl/well 10% Fetal Bovine Serum (FBS) in PBS for 1 hour at room temperature. The cells were then washed three times with PBS buffer and incubated with 100 μl/well anti-hepatitis C core mAb (Affinity BioReagents; cat. # MA1-080, 1 mg/ml stock diluted 1:4,000 in 10% FBS-PBS) for 2 hours at 37° C. Then, the cells were washed three times with PBS and incubated with 100 μl/well HRP-Goat Anti-Mouse antibody (diluted 1:3.500 in 10% FBS-PBS) for 1 hour at 37° C. The cells were then washed three times with PBS and developed with an OPD solution, 100 μl/well (1 OPD tablet+12 ml citrate/phosphate buffer+5 μl 30% H2O2 per plate), for 30 minutes in the dark at room temperature. The reaction was stopped with 2N H2SO4 (100 μl/well), and the absorbance was measured at A490 X on a Victor^3 V 1420 multilabel counter (Perkin Elmer).

Series [1] in a line: Cytotoxicity, cell viability by ATPLite Kit. The series is classed as cell-based, human. The following applies: human, 10% FBS; for inhibition at 96 h: Huh7 cells (human hepatoma cell line), maximal inhibition, read-out: Cytotox gT1b 10% FBS max. inh. How it is done:
The cytotoxicity of the test compounds was studied in parallel using the same cell line, Huh7. Cell viability was determined using the ATPLite Kit (Perkin-Elmer, Boston, USA), according to manufacturer's instructions. 96-well black/transparent bottom plates were seeded with cells at a density of 7.5×10^3 cells per well in 50 μl medium. After 18 hours, compound treatment was initiated by adding 50 μl of compound dilution into the plates. Each compound dilution was tested in triplicates. The cells and inhibitors were then incubated for 96 hours at 37° C./5% CO2. The plates were washed twice with PBS (0.2 ml/well), and then lysed by adding lysis buffer, 0.05 ml/well (all reagents were included with the ATPLite Kit). After rocking for 5 min on a rocking platform, substrate buffer was added (0.05 ml/well). After additional 5-min incubation, the plates were kept in dark for 10 min, and the luminescence was read using TopCount NXT (Packard, Perkin Elmer). CC50 values for all test compounds were determined using XLfit 4.1 software (Table 2).

Where [2] appears, read: 10% FBS, read-out: gT1b 10% FBS, EC50 (pM) mean.
[3] abbreviates: 40% NHS, read-out: gT1b 40% NHS, EC50 (pM) mean.

Where a name gives a salt, the structure may show the parent alone. Read-outs that look alike come from different tables or passages of the source.

Consider `COC(=O)N[C@H](C(=O)N1CCC[C@H]1c1ncc(C#CC#Cc2ccc(-c3cnc([C@@H]4CCCN4C(=O)[C@@H](NC(=O)OC)C(C)C)[nH]3)cc2-c2ccccc2)[nH]1)C(C)C` [2(1)•2HCl, [(S)-1-((S)-2-{5-[4-(5-{2-[(S)-1-((S)-2-Methoxycarbonylamino-3-methyl-butyryl)-pyrrolidin-2-yl]-3H-imidazol-4-yl}-biphenyl-2-yl)-buta-1,3-diynyl]-1H-imidazol-2-yl}-pyrrolidine-1-carbonyl)-2-methyl-propyl]-carbamic acid methyl ester dihydrochloride], for which the EC50 with HCV gT1b replicon (setting [2]) is 1.79 pM; with HCV gT1b replicon (setting [3]) it was 12.4 pM. In addition, the inhibition at 96 h in series [1] is 42%.
For `COC(=O)N[C@H](C(=O)N1CCC[C@H]1c1ncc(C#CC#Cc2ccc(-c3cnc([C@@H]4CCCN4C(=O)[C@@H](NC(=O)OC)C(C)C)[nH]3)cc2-c2cccc(C(C)(C)C)c2)[nH]1)C(C)C` [2(2)•2HCl, [(S)-1-((S)-2-{5-[4-(3′-tert-Butyl-5-{2-[(S)-1-((S)-2-methoxycarbonylamino-3-methyl-butyryl)-pyrrolidin-2-yl]-3H-imidazol-4-yl}-biphenyl-2-yl)-buta-1,3-diynyl]-1H-imidazol-2-yl}-pyrrolidine-1-carbonyl)-2-methyl-propyl]-carbamic acid methyl ester dihydrochloride] the same measures were 1.67 pM, 6.6 pM and 38%.
With `COC(=O)N[C@H](C(=O)N1CCC[C@H]1c1ncc(C#CC#Cc2ccc(-c3cnc([C@@H]4CCCN4C(=O)[C@@H](NC(=O)OC)C(C)C)[nH]3)cc2-c2cccc(-c3ccccc3)c2)[nH]1)C(C)C` [2(3)•2HCl, [(S)-1-((S)-2-{5-[4-(5-{2-[(S)-1-((S)-2-Methoxycarbonylamino-3-methyl-butyryl)-pyrrolidin-2-yl]-3H-imidazol-4-yl}-[1,1′; 3′,1″]terphenyl-2-yl)-buta-1,3-diynyl]-1H-imidazol-2-yl}-pyrrolidine-1-carbonyl)-2-methyl-propyl]-carbamic acid methyl ester dihydrochloride], the EC50 in the series on HCV gT1b replicon (setting [2]) was determined as 1.24 pM; in the series with HCV gT1b replicon (setting [3]), 17.1 pM. In addition, the inhibition at 96 h in series [1] amounted to 29%.
For `COC(=O)N[C@H](C(=O)N1CCC[C@H]1c1ncc(C#CC#Cc2ccc(-c3cnc([C@@H]4CCCN4C(=O)[C@@H](NC(=O)OC)C(C)C)[nH]3)cc2-c2ccc3ccccc3c2)[nH]1)C(C)C` [2(4)•2HCl, [(S)-1-((S)-2-{5-[4-(4-{2-[(S)-1-((S)-2-Methoxycarbonylamino-3-methyl-butyryl)-pyrrolidin-2-yl]-3H-imidazol-4-yl}-2-naphthalen-2-yl-phenyl)-buta-1,3-diynyl]-1H-imidazol-2-yl}-pyrrolidine-1-carbonyl)-2-methyl-propyl]-carbamic acid methyl ester dihydrochloride] the same measures were 1.56 pM, 16.3 pM and 31%.
Turning to `COC(=O)N[C@H](C(=O)N1CCC[C@H]1c1ncc(-c2ccc(C#CC#Cc3cnc([C@@H]4CCCN4C(=O)[C@H](NC(=O)OC)c4ccccc4)[nH]3)c(-c3cccc(C(C)(C)C)c3)c2)[nH]1)C(C)C` [2(10)•2HCl, [(S)-1-((S)-2-{5-[3′-tert-Butyl-6-(4-{2-[(S)-1-((R)-2-methoxycarbonylamino-2-phenyl-acetyl)-pyrrolidin-2-yl]-3H-imidazol-4-yl}-buta-1,3-diynyl)-biphenyl-3-yl]-1H-imidazol-2-yl}-pyrrolidine-1-carbonyl)-2-methyl-propyl]-carbamic acid methyl ester dihydrochloride], the half-maximal effective concentration (EC50) in the series with HCV gT1b replicon (setting [2]) was determined as 1.22 pM; in the series with HCV gT1b replicon (setting [3]), 8.13 pM. The inhibition at 96 h in series [1] is 37%.
For `COC(=O)N[C@H](C(=O)N1CCC[C@H]1c1ncc(-c2ccc(C#CC#Cc3cnc([C@@H]4CCCN4C(=O)[C@H](NC(=O)OC)c4ccccc4)[nH]3)c(-c3ccc(C(C)(C)C)cc3)c2)[nH]1)C(C)C` [2(11)•2HCl, [(S)-1-((S)-2-{5-[4′-tert-Butyl-6-(4-{2-[(S)-1-((R)-2-methoxycarbonylamino-2-phenyl-acetyl)-pyrrolidin-2-yl]-3H-imidazol-4-yl}-buta-1,3-diynyl)-biphenyl-3-yl]-1H-imidazol-2-yl}-pyrrolidine-1-carbonyl)-2-methyl-propyl]-carbamic acid methyl ester dihydrochloride] the same measures were 1.24 pM, 10.7 pM and 29%.
The corresponding values for `COC(=O)N[C@H](C(=O)N1CCC[C@H]1c1ncc(-c2ccc(C#CC#Cc3cnc([C@@H]4CCCN4C(=O)[C@H](NC(=O)OC)c4ccccc4)[nH]3)c(-c3cccc(-c4ccccc4)c3)c2)[nH]1)C(C)C` [2(12)•2HCl, [(S)-1-((S)-2-{5-[6-(4-{2-[(S)-1-((R)-2-Methoxycarbonylamino-2-phenyl-acetyl)-pyrrolidin-2-yl]-3H-imidazol-4-yl}-buta-1,3-diynyl)-[1,1′;3′,1″]terphenyl-3-yl]-1H-imidazol-2-yl}-pyrrolidine-1-carbonyl)-2-methyl-propyl]-carbamic acid methyl ester dihydrochloride] are 1.79 pM, 13.4 pM and 29%.
The corresponding values for `COC(=O)N[C@H](C(=O)N1CCC[C@H]1c1ncc(-c2ccc(C#CC#Cc3cnc([C@@H]4CCCN4C(=O)[C@H](NC(=O)OC)c4ccccc4)[nH]3)c(-c3ccc(-c4ccccc4)cc3)c2)[nH]1)C(C)C` [2(13)•2HCl, [(S)-1-((S)-2-{5-[6-(4-{2-[(S)-1-((R)-2-Methoxycarbonylamino-2-phenyl-acetyl)-pyrrolidin-2-yl]-3H-imidazol-4-yl}-buta-1,3-diynyl)-[1,1′;4′,1″]terphenyl-3-yl]-1H-imidazol-2-yl}-pyrrolidine-1-carbonyl)-2-methyl-propyl]-carbamic acid methyl ester dihydrochloride] are 1.61 pM, 14.4 pM and 24%.
In the case of `COC(=O)N[C@H](C(=O)N1CCC[C@H]1c1ncc(-c2ccc(C#CC#Cc3cnc([C@@H]4CCCN4C(=O)[C@H](NC(=O)OC)c4ccccc4)[nH]3)c(-c3ccc(N4CCN(C)CC4)cc3)c2)[nH]1)C(C)C` [2(15)•2HCl, [(S)-1-((S)-2-{5-[4′-(4-Methyl-piperazin-1-yl)-6-(4-{2-[(S)-1-((R)-2-methoxycarbonylamino-2-phenyl-acetyl)-pyrrolidin-2-yl]-3H-imidazol-4-yl}-buta-1,3-diynyl)-biphenyl-3-yl]-1H-imidazol-2-yl}-pyrrolidine-1-carbonyl)-2-methyl-propyl]-carbamic acid methyl ester tetrahydrochloride], the EC50 in the series on HCV gT1b replicon (setting [2]) worked out at 3.65 pM; in the series on HCV gT1b replicon (setting [3]) it was 23.9 pM. In addition, the inhibition at 96 h in series [1] came to 82%. Besides, the cytotoxic concentration (CC50) at 96 h in series [1] (Huh7 human hepatoma cells, read-out: Cytotox gT1b 10% FBS CC50) came out at 16200 nM.
Turning to `COC(=O)N[C@H](C(=O)N1CCC[C@H]1c1ncc(-c2ccc(C#CC#Cc3cnc([C@@H]4CCCN4C(=O)[C@H](NC(=O)OC)c4ccccc4)[nH]3)c(-c3cccnc3)c2)[nH]1)C(C)C` [2(16)•2HCl, [(S)-1-((S)-2-{5-[4-(4-{2-[(S)-1-((R)-2-Methoxycarbonylamino-2-phenyl-acetyl)-pyrrolidin-2-yl]-3H-imidazol-4-yl}-buta-1,3-diynyl)-3-pyridin-3-yl-phenyl]-1H-imidazol-2-yl}-pyrrolidine-1-carbonyl)-2-methyl-propyl]-carbamic acid methyl ester trihydrochloride], the EC50 with HCV gT1b replicon (setting [2]) was 4.7 pM; in the series on HCV gT1b replicon (setting [3]), 36.2 pM. For the same compound, in series [1], the inhibition at 96 h was 32%.

The values above are taken from patent US9790207B2, “Pan-genomic inhibitors of NS5A protein encoded by HCV, pharmaceutical compositions, intermediates for inhibitor synthesis, and their synthesis and application methods” (priority 2015, dated 2017).
